Laboratory results taken from patent US20080200693A1, “Derivatives of Aryl (or Heteroaryl) Azolylcarbinols (in Particular Cizolirtin Citrate) for the Treatment of Opioid Addiction” (LABORATORIOS DEL DR. ESTEVE S.A., priority 2004, published 2008).

System: male Swiss albino mice
Experiment: Determination of withdrawal symptoms (naloxone-induced jumps and shakes in opioid-dependent mice)
Format: in vivo
Protocol: Pharmacodyn, 1971, 190, pages 213-218 in male Swiss albino mice (weight 20-25 g, Harlan Iberica, S. Feliu de Codinas, Barcelona, Spain).
Opioid dependency is developed in the mice by intraperitoneal administration of the opioid in a suitable dose known to those skilled in the art, e.g. 5 mg/kg/day for 4 consecutive days for morphine. Withdrawal symptoms are then induced by the intravenous administration of a suitable opioid antagonist in a dose known to those skilled in the art, for example, 2 mg/kg naloxone in case of morphine, 30 minutes after the administration of the final dose of the opioid is completed.
In the 30 minute period following the naloxone administration the mice show typical withdrawal symptoms, namely jumps and shakes (of the wet dog shake type), which are counted and registered.
The active substance is administered in combination with the opioid to the mice for 4 consecutive days. After the administration of 2 mg/kg naloxone 30 minutes after the administration of the final dose of the active substance in combination with the opioid has been completed, the mice are closely watched for withdrawal symptoms, namely jumps and shakes (of the wet dog shake type), which are then counted and registered.
The influence of the active substance in combination with an opioid on withdrawal symptoms has been determined as described above.

Row | Structure (SMILES) | withdrawal symptoms usually associated with the administration of opioids (morphine) (co-administration with morphine, administered amount of the opioid not reduced, mice) | Number of Jumps (morphine 5 mg/kg/day s.c. over 4 days, 2 mg/kg naloxone 30 min after final dose, counted in the following 30 minute period) | Number of shakes (morphine 5 mg/kg/day s.c. over 4 days, 2 mg/kg naloxone 30 min after final dose, wet dog shake type, counted in the following 30 minute period)
1 | CN(C)CCOC(c1ccccc1)c1ccnn1C.O=C(O)CC(O)(CC(=O)O)C(=O)O (racemic) [Example 1, (±)-5-{α-[2-(dimethylamino)ethoxy]benzyl}-1-methyl-1H-pirazole citrate] | significantly reduced | – | –
2 | CN1CC[C@]23c4c5ccc(O)c4O[C@H]2[C@@H](O)C=C[C@H]3[C@H]1C5 [Morphine] | – | 6.6 | 16.3
